Target: T1, PI3Kα H1047R in T47D cells (Homo sapiens, UniProt P42336, H1047R)
T1 construct: endogenous in cells; host or cells: T47D
Test: PI3Kα cellular assay: T47D pAKT S473 HTRF
Type: cell-based
Conditions: for T47D pAKT S473 HTRF IC50 (H1047R): T47D (H1047R) selectivity over SKBR3 (WT): T47D (H1047R) versus SKBR3 (WT) cells; for IC50: T47D cells (H1047R), serum starved, 1 hr compound, 20 ng/ml EGF 10 min
Method: PI3Kα cellular assay experimental procedure: SKBR3 or T47D cells are seeded in DMEM containing 10% FBS at 25 k cells/well into 96-well cell culture format. Cells are incubated overnight at 37° C. in a 5% CO2 incubator and the following day cell media is aspirated, adherent cells are washed 1× with room temperature PBS prior to serum-free media application. Cells are returned to 37° C. 5% CO2 incubator and incubated a further 16 hrs. Compounds are added to serum starved adherent cells with a top dose of 10,000 nM and 3× multiple dose reductions for a minimum dose of 0.5 nM diluted in DMSO. Cell/compound incubation continues for 1 hr in a 37° C., 5% CO2 incubator prior to 10 minute PIK3CA stimulation with 20 ng/ml EGF. Cells treated with 0.1% DMSO and 20 ng/mL EGF are employed as negative control, cells treated with 10 uM Alpelisib and 20 ng/mL EGF are employed as a positive control. After 10 mins, plates are removed from incubator and cells are lysed with buffer and shaking 45 minutes. 20 μL of lysate is transferred to an opti-384 plate and 2.5 μl of Phospho-AKT d2 antibody with 2.5 μl of Phospho-AKT Eu Cryptate solution in the detection buffer are added to each well. 384 well plate is left overnight at room temperature before reading HTRF on an Envision plate reader.

T1 sequence (P42336 whole entry H1047R): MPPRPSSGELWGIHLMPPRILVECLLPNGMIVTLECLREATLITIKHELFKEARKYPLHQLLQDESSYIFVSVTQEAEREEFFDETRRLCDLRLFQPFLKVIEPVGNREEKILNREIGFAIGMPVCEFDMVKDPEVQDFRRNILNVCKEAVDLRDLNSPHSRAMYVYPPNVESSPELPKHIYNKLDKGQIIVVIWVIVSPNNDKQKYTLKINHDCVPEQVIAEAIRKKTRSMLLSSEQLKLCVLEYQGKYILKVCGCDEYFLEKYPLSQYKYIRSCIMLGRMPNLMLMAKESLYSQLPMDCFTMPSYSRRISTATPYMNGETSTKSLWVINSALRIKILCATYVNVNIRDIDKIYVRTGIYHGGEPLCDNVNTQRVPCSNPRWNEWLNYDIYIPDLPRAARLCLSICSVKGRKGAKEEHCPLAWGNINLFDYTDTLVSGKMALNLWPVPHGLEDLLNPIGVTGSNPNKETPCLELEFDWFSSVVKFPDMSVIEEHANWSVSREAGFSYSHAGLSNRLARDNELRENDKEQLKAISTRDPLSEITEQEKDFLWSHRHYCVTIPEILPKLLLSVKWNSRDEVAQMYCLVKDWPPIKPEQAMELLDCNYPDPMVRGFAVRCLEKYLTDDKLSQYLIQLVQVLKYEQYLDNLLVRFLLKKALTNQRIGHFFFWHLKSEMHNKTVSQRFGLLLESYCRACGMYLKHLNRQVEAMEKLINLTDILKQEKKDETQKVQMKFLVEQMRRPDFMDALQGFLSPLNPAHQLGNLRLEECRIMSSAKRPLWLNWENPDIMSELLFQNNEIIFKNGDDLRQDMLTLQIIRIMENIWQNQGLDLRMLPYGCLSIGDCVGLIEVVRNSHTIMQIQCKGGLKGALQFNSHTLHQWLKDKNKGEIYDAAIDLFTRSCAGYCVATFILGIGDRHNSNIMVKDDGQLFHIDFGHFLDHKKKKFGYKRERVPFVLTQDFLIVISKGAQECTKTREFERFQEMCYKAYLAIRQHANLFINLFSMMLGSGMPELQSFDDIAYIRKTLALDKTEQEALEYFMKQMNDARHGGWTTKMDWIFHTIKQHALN
T1 sequence (P27986 whole entry partner): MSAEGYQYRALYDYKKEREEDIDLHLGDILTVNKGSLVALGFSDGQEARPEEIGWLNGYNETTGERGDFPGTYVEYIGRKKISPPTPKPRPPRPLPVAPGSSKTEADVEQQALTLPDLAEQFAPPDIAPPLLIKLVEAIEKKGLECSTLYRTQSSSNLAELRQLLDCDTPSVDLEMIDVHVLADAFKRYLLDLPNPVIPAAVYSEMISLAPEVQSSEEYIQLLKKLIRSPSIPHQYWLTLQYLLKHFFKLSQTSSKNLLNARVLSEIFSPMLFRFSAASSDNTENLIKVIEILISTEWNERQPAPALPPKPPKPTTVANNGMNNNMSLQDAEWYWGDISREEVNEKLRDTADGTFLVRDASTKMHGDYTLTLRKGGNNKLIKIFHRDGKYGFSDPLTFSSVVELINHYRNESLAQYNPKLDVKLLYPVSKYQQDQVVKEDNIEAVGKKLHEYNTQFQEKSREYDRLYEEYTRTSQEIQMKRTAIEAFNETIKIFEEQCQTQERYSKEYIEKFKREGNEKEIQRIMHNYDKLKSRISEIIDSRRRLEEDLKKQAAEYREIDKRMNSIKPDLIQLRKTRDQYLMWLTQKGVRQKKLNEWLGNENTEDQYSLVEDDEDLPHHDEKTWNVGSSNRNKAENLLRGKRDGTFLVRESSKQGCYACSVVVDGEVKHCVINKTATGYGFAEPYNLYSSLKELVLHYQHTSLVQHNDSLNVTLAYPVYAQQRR

SMILES	T47D pAKT S473 HTRF IC50 (H1047R): T47D (H1047R) selectivity over SKBR3 (WT)	IC50
Cc1cc([C@H](C)Nc2ccccc2C(=O)O)c2nc(N3CCC(C)(C)CC3)nc(N)c2c1 [Compound 1]	C (C denotes ≤5-fold)	≥ 2 µM
Cc1cc([C@@H](C)Nc2ccccc2C(=O)O)c2nc(N3CCC(C)(C)CC3)nc(N)c2c1 [Compound 2]	C (C denotes ≤5-fold)	≥ 2 µM
Cc1cc(C(C)Nc2ccccc2C(=O)O)c2nc(N3CCC(C)(C)CC3)nc(N)c2c1 (centres unmarked) [Compound 3]	C (C denotes ≤5-fold)	≥ 2 µM
Cc1cc([C@@H](C)Nc2ccccc2C(=O)O)c2nc(N3Cc4ccccc4C3)[nH]c(=O)c2c1 [Compound 4]	C (C denotes ≤5-fold)	≥ 2 µM
Cc1cc(C(C)Nc2ccccc2C(=O)O)c2nc(N3Cc4ccccc4C3)[nH]c(=O)c2c1 (centres unmarked) [Compound 6]	C (C denotes ≤5-fold)	≥ 2 µM
Cc1cc([C@H](C)Nc2ccccc2C(=O)O)c2nc(N3CCC(C)(C)CC3)ncc2c1 [Compound 7]	C (C denotes ≤5-fold)	≥ 2 µM
Cc1cc(C(C)Nc2ccccc2C(=O)O)c2nc(-c3ccncc3)nc(O)c2c1 (centres unmarked) [Compound 9, 2-((1-(4-hydroxy-6-methyl-2-(pyridin-4-yl)quinazolin-8-yl)ethyl)amino)benzoic acid]	B (B denotes 20-fold≥value>5-fold)	< 0.75 µM
Cc1cc([C@H](C)Nc2ccccc2C(=O)O)c2nc(N3CCC(C)(C)CC3)nc(O)c2c1 [Compound 11]	B (B denotes 20-fold≥value>5-fold)	0.75 to 2 µM
Cc1cc([C@@H](C)Nc2ccccc2C(=O)O)c2nc(N3CCC(C)(C)CC3)nc(O)c2c1 [Compound 12]	C (C denotes ≤5-fold)	≥ 2 µM
Cc1cc([C@H](C)Nc2ccccc2C(=O)O)c2[nH]c(N3CCOCC3)nc(=O)c2c1 [Compound 17]	B (B denotes 20-fold≥value>5-fold)	< 0.75 µM
Cc1cc([C@@H](C)Nc2ccccc2C(=O)O)c2[nH]c(N3CCOCC3)nc(=O)c2c1 [Compound 18]	C (C denotes ≤5-fold)	≥ 2 µM
Cc1cc(C(C)Nc2ccccc2C(=O)O)c2nc(N3CCC(C)(C)CC3)nc(NC(=O)CCl)c2c1 (centres unmarked) [Compound 21]	C (C denotes ≤5-fold)	≥ 2 µM
Cc1cc(C(C)Nc2ccccc2C(=O)O)c2nc(N3CCC(C)(C)CC3)nc(C(N)=O)c2c1 (centres unmarked) [Compound 23]	C (C denotes ≤5-fold)	≥ 2 µM
Cc1cc(C(C)Nc2ccccc2C(=O)O)c2nc(N3Cc4ccccc4C3)nc(C(N)=O)c2c1 (centres unmarked) [Compound 24]	A (A denotes >20-fold)	< 0.75 µM
Cc1cc(C(C)Nc2ccccc2C(=O)O)c2nc(N3Cc4ccccc4C3)ccc2c1 (centres unmarked) [Compound 30]	B (B denotes 20-fold≥value>5-fold)	0.75 to 2 µM
Cc1cc([C@@H](C)Nc2ccccc2C(=O)O)c2nc(N3Cc4ccccc4C3)ncc2c1 [Compound 35]	C (C denotes ≤5-fold)	≥ 2 µM
Cc1cc([C@H](C)Nc2ccccc2C(=O)O)c2nc(N3Cc4ccccc4C3)ncc2c1 [Compound 36]	B (B denotes 20-fold≥value>5-fold)	0.75 to 2 µM

SMILES	T47D pAKT S473 HTRF IC50 (H1047R): T47D (H1047R) selectivity over SKBR3 (WT)	IC50
Cc1cc([C@H](C)Nc2ccccc2C(=O)O)c2nc(-c3ccc(F)cc3)n(C)c(=O)c2c1 [Compound 39]	C (C denotes ≤5-fold)	≥ 2 µM
Cc1cc(C(C)Nc2ccccc2C(=O)O)c2cc(N3Cc4ccccc4C3)nc(C#N)c2c1 (centres unmarked) [Compound 46]	C (C denotes ≤5-fold)	≥ 2 µM
Cc1cc(C(C)Nc2ccccc2C(=O)O)c2cc(N3Cc4ccccc4C3)ncc2c1 (centres unmarked) [Compound 59]	B (B denotes 20-fold≥value>5-fold)	0.75 to 2 µM
Cc1cc(C(C)Nc2ccccc2C(=O)O)c2nc(N3CCC(C)(C)CC3)nc(C#N)c2c1 (centres unmarked) [Compound 61]	A (A denotes >20-fold)	< 0.75 µM
Cc1cc(C(C)Nc2ccccc2C(=O)O)c2nc(N3Cc4ccccc4C3)nc(N3CC(O)C3)c2c1 (centres unmarked) [Compound 63, 2-((1-(4-(3-hydroxyazetidin-1-yl)-2-(isoindolin-2-yl)-6-methylquinazolin-8-yl)ethyl)amino)benzoic acid]	B (B denotes 20-fold≥value>5-fold)	0.75 to 2 µM
Cc1cc(C(C)Nc2ccccc2C(=O)O)c2nc(N3Cc4ccccc4C3)nc(NC3CC3O)c2c1 (centres unmarked) [Compound 65]	B (B denotes 20-fold≥value>5-fold)	0.75 to 2 µM
Cc1cc(C(C)Nc2ccccc2C(=O)O)c2nc(N3Cc4ccccc4C3)nc(C3CC3O)c2c1 (centres unmarked) [Compound 69]	B (B denotes 20-fold≥value>5-fold)	0.75 to 2 µM
Cc1cc(C(C)Nc2ccccc2C(=O)O)c2nc(N3Cc4ccccc4C3)nc(NC3COC3)c2c1 (centres unmarked) [Compound 71]	C (C denotes ≤5-fold)	≥ 2 µM
Cc1cc([C@@H](C)Nc2ccccc2C(=O)O)c2cc(-c3ccc4c(c3)c(C)nn4C)n(C)c(=O)c2c1 [Compound 86]	A (A denotes >20-fold)	< 0.75 µM
Cc1cc(C(C)Nc2ccccc2C(=O)O)c2cc(-c3ccc4c(c3)c(C)nn4C)n(C)c(=O)c2c1 (centres unmarked) [Compound 87]	A (A denotes >20-fold)	< 0.75 µM
Cc1cc([C@@H](C)Nc2ccccc2C(=O)O)c2cc(-c3ccnc(C4CC4)c3)ncc2c1 [Compound 89]	A (A denotes >20-fold)	< 0.75 µM
Cc1cc(C(C)Nc2ccccc2C(=O)O)c2cc(OCc3ccccc3)nc(C(N)=O)c2c1 (centres unmarked) [Compound 128]	A (A denotes >20-fold)	< 0.75 µM
Cc1cc(C(C)Nc2ccccc2C(=O)O)c2cc(C3CCCOC3)ncc2c1 (centres unmarked) [Compound 131]	A (A denotes >20-fold)	< 0.75 µM
Cc1cc([C@@H](C)Nc2ccccc2C(=O)O)c2cc(OC3CCOCC3)ncc2c1 [Compound 132]	A (A denotes >20-fold)	< 0.75 µM
Cc1cc(C(C)Nc2ccccc2C(=O)O)c2nc(-c3ccc4c(c3)c(C)cn4C)n(C)c(=O)c2c1 (centres unmarked) [Compound 133]	A (A denotes >20-fold)	< 0.75 µM
Cc1cc([C@@H](C)Nc2ccccc2C(=O)O)c2nc(-c3ccc4c(c3)c(C)cn4C)n(C)c(=O)c2c1 [Compound 134]	A (A denotes >20-fold)	< 0.75 µM
Cc1cc([C@@H](C)Nc2ccccc2C(=O)O)c2nc(-c3ccc(C)nc3)n(C)c(=O)c2c1 [Compound 135]	A (A denotes >20-fold)	< 0.75 µM

— patent US20260130925A1, “METHODS FOR TREATING CANCER” (Genesis Molecular AI, Inc., priority 2022, published 2026)
